Measurements reported in ChEMBL document CHEMBL1201862, “PubChem BioAssay data set” (2004).
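Results reflect a 48-hour exposure of cells in 96-well plates to compound at five concentrations. At the GI50, growth is halved.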 Calls of active or inactive are those of the source. Cut-off read from the data, not from the text of the source: active = GI50 up to about 1.1 µM and inactive = higher.

Assays:
Test in all cases: NCI tumour cell line growth inhibition, 48 h
MDA-MB-435 = system: MDA-MB-435
T47D = system: T47D
HOP-92 = system: HOP-92
TK-10 = system: TK-10
PC-3 = system: PC-3
786-0 = system: 786-0
CCRF-CEM = system: CCRF-CEM
Malme-3M = system: Malme-3M
RPMI-8226 = system: RPMI-8226
SK-MEL-28 = system: SK-MEL-28
A549 = system: A549
MDA-N = system: MDA-N
SF-539 = system: SF-539
SK-MEL-5 = system: SK-MEL-5
SR = system: SR
K562 = system: K562
ACHN = system: ACHN
OVCAR-3 = system: OVCAR-3
HCT-116 = system: HCT-116
UO-31 = system: UO-31

| SMILES | GI50 (MDA-MB-435) | GI50 (T47D) | GI50 (HOP-92) | GI50 (TK-10) | GI50 (PC-3) | GI50 (786-0) | GI50 (CCRF-CEM) | GI50 (Malme-3M) | GI50 (RPMI-8226) | GI50 (SK-MEL-28) | GI50 (A549) | GI50 (MDA-N) | GI50 (SF-539) | GI50 (SK-MEL-5) | GI50 (SR) | GI50 (K562) | GI50 (ACHN) | GI50 (OVCAR-3) | GI50 (HCT-116) | GI50 (UO-31) |
| --- | --- | --- | --- | --- | --- | --- | --- | --- | --- | --- | --- | --- | --- | --- | --- | --- | --- | --- | --- | --- |
| O=C1CCCCC(=O)Nc2ccccc2N1 | > 100 µM (inactive) | > 100 µM (inactive) | > 100 µM (inactive) | > 100 µM (inactive) | > 100 µM (inactive) | > 100 µM (inactive) | > 100 µM (inactive) | > 100 µM (inactive) | > 100 µM (inactive) | > 100 µM (inactive) | > 100 µM (inactive) | > 100 µM (inactive) | > 100 µM (inactive) | > 100 µM (inactive) | 39.4 µM (inactive) | > 100 µM (inactive) | > 100 µM (inactive) | > 100 µM (inactive) | > 100 µM (inactive) | > 100 µM (inactive) |
| c1ccc2c(c1)-c1ccccc1C2N1CC2CCC(CC2)C1 | 25.1 µM (inactive) | 20.7 µM (inactive) | 17.5 µM (inactive) | 37.4 µM (inactive) | 27.6 µM (inactive) | 35.1 µM (inactive) | 19.5 µM (inactive) | 10.1 µM (inactive) | 20.4 µM (inactive) | 33.3 µM (inactive) | 28.8 µM (inactive) | 31.9 µM (inactive) | 24.1 µM (inactive) | 17.1 µM (inactive) | 20.6 µM (inactive) | 17.3 µM (inactive) | 23 µM (inactive) | 20.4 µM (inactive) | 20.7 µM (inactive) | 28.8 µM (inactive) |
| C[C@@H]1[C@@H](C)C(c2ccccc2)O[Si]1(C(C)(C)C)C(C)(C)C (stereo partly drawn) | 25.6 µM (inactive) | 19.1 µM (inactive) | 21.5 µM (inactive) | 16.4 µM (inactive) | 17.1 µM (inactive) | 16 µM (inactive) | 18.9 µM (inactive) | 9.71 µM (inactive) | 20.6 µM (inactive) | 24.9 µM (inactive) | 16.6 µM (inactive) | 22.5 µM (inactive) | 17 µM (inactive) | 17.4 µM (inactive) | 11.8 µM (inactive) | 22.3 µM (inactive) | 17.7 µM (inactive) | 16.5 µM (inactive) | 15.5 µM (inactive) | 17.2 µM (inactive) |
| CC(C)(C)OC(=O)NCCC(N)=S | > 100 µM (inactive) | > 100 µM (inactive) | > 100 µM (inactive) | > 100 µM (inactive) | > 100 µM (inactive) | > 100 µM (inactive) | 57.5 µM (inactive) | > 100 µM (inactive) | > 100 µM (inactive) | > 100 µM (inactive) | > 100 µM (inactive) | > 100 µM (inactive) | > 100 µM (inactive) | > 100 µM (inactive) | > 100 µM (inactive) | > 100 µM (inactive) | > 100 µM (inactive) | > 100 µM (inactive) | > 100 µM (inactive) | > 100 µM (inactive) |
| CC(C)C[S+]1C2=C(CC(C)(C)CC2=O)[N-]c2ccccc21 (stereo not drawn) | > 100 µM (inactive) | > 100 µM (inactive) | > 100 µM (inactive) | > 100 µM (inactive) | > 100 µM (inactive) | > 100 µM (inactive) | > 100 µM (inactive) | > 100 µM (inactive) | > 100 µM (inactive) | > 100 µM (inactive) | > 100 µM (inactive) | > 100 µM (inactive) | > 100 µM (inactive) | > 100 µM (inactive) | 11.3 µM (inactive) | 71.9 µM (inactive) | > 100 µM (inactive) | > 100 µM (inactive) | > 100 µM (inactive) | > 100 µM (inactive) |
| COc1cccc2nc3ccccc3nc12 | > 100 µM (inactive) | 76 µM (inactive) | 33 µM (inactive) | 66.1 µM (inactive) | 25.5 µM (inactive) | 74.1 µM (inactive) | 43.4 µM (inactive) | > 100 µM (inactive) | 17 µM (inactive) | > 100 µM (inactive) | 54.2 µM (inactive) | > 100 µM (inactive) | 84.5 µM (inactive) | 54.8 µM (inactive) | 44.1 µM (inactive) | 80.2 µM (inactive) | 25.3 µM (inactive) | 91 µM (inactive) | 38.5 µM (inactive) | 36 µM (inactive) |
| CC1(C)S[C@@H]2[C@H](NC(=O)C3(N)CCCCC3)C(=O)N2[C@H]1C(=O)O [CYCLACILLIN] | > 100 µM (inactive) | > 100 µM (inactive) | > 100 µM (inactive) | > 100 µM (inactive) | > 100 µM (inactive) | > 100 µM (inactive) | > 100 µM (inactive) | > 100 µM (inactive) | > 100 µM (inactive) | > 100 µM (inactive) | > 100 µM (inactive) | > 100 µM (inactive) | > 100 µM (inactive) | > 100 µM (inactive) | > 100 µM (inactive) | > 100 µM (inactive) | > 100 µM (inactive) | > 100 µM (inactive) | > 100 µM (inactive) | > 100 µM (inactive) |
| CC(=O)NC1=CC(=O)C=C(Cl)C1=O | 17.9 µM (inactive) | > 100 µM (inactive) | > 100 µM (inactive) | > 100 µM (inactive) | > 100 µM (inactive) | > 100 µM (inactive) | 22.9 µM (inactive) | 25.7 µM (inactive) | 22.6 µM (inactive) | > 100 µM (inactive) | > 100 µM (inactive) | 16.8 µM (inactive) | > 100 µM (inactive) | > 100 µM (inactive) | 22.4 µM (inactive) | 33.7 µM (inactive) | > 100 µM (inactive) | > 100 µM (inactive) | > 100 µM (inactive) | > 100 µM (inactive) |
| COC(=O)[C@H](C)NC(=O)C1(CNC(=O)[C@H](C)NC(=O)OC(C)(C)C)Cc2ccccc2-c2ccccc2C1 | 20 µM (inactive) | 21.8 µM (inactive) | 5.51 µM (inactive) | 27 µM (inactive) | 23.8 µM (inactive) | 19.6 µM (inactive) | 18.7 µM (inactive) | 19.1 µM (inactive) | 7.59 µM (inactive) | > 47.3 µM (inactive) | 19.4 µM (inactive) | 26.1 µM (inactive) | 27 µM (inactive) | 23.3 µM (inactive) | 20 µM (inactive) | 24.7 µM (inactive) | 22.8 µM (inactive) | 17.5 µM (inactive) | 33.8 µM (inactive) | 4.67 µM (inactive) |
| CCCCCCCC/C=C1\CCC(CN2CCOCC2)C1=O (stereo not drawn) | 4.81 µM (inactive) | 1.85 µM (inactive) | 16.6 µM (inactive) | 2.77 µM (inactive) | 11.2 µM (inactive) | 1.68 µM (inactive) | 2.79 µM (inactive) | 10.5 µM (inactive) | 0.551 µM (active) | 9.35 µM (inactive) | 15 µM (inactive) | 9.55 µM (inactive) | 7.74 µM (inactive) | 10.1 µM (inactive) | 2.13 µM (inactive) | 2.74 µM (inactive) | 16.4 µM (inactive) | 7.5 µM (inactive) | 3.53 µM (inactive) | 8.36 µM (inactive) |
| CCC(=O)/C=C/c1ccccc1 | 33.8 µM (inactive) | > 100 µM (inactive) | > 100 µM (inactive) | > 100 µM (inactive) | > 100 µM (inactive) | 46 µM (inactive) | 37.2 µM (inactive) | > 100 µM (inactive) | 54.3 µM (inactive) | 54 µM (inactive) | > 100 µM (inactive) | 40.6 µM (inactive) | 53 µM (inactive) | 33 µM (inactive) | 42.8 µM (inactive) | 25.6 µM (inactive) | 79.1 µM (inactive) | 67.6 µM (inactive) | 31.3 µM (inactive) | 76.6 µM (inactive) |
| O=C1c2ccccc2C(=O)N1CC1S(=O)(=O)OCCOS1(=O)=O | > 100 µM (inactive) | > 100 µM (inactive) | > 100 µM (inactive) | > 100 µM (inactive) | > 100 µM (inactive) | > 100 µM (inactive) | > 100 µM (inactive) | > 100 µM (inactive) | > 100 µM (inactive) | > 100 µM (inactive) | > 100 µM (inactive) | > 100 µM (inactive) | 98.4 µM (inactive) | > 100 µM (inactive) | 44.1 µM (inactive) | > 100 µM (inactive) | > 100 µM (inactive) | > 100 µM (inactive) | > 100 µM (inactive) | > 100 µM (inactive) |
| O=S(=O)(Nc1nc2ccccc2nc1Nc1ccc2ccccc2c1)c1ccccc1 | 10.8 µM (inactive) | 5.68 µM (inactive) | 5.06 µM (inactive) | 27.1 µM (inactive) | 3.3 µM (inactive) | 20.3 µM (inactive) | 20 µM (inactive) | 4.53 µM (inactive) | 2.44 µM (inactive) | 12.1 µM (inactive) | 5.96 µM (inactive) | 19.5 µM (inactive) | 15.3 µM (inactive) | 10.9 µM (inactive) | 13.2 µM (inactive) | 22.5 µM (inactive) | 17.3 µM (inactive) | 1.87 µM (inactive) | 7.8 µM (inactive) | 3.61 µM (inactive) |
| Cc1cc(C)c(N[S+]([O-])c2cccc(C(F)(F)F)c2)c(C)c1 (stereo not drawn) | > 100 µM (inactive) | > 100 µM (inactive) | > 100 µM (inactive) | > 100 µM (inactive) | > 100 µM (inactive) | > 100 µM (inactive) | > 100 µM (inactive) | > 100 µM (inactive) | > 100 µM (inactive) | > 100 µM (inactive) | > 100 µM (inactive) | > 100 µM (inactive) | > 100 µM (inactive) |  | > 100 µM (inactive) | > 100 µM (inactive) | > 100 µM (inactive) | > 100 µM (inactive) |  | > 100 µM (inactive) |
